The source made the active and inactive calls. Rule as the data show it, for most assays here: actives have a measured EC50 and inactives only a lower limit.
Experiments:
[1] = luciferase reporter signal suppression in cells – H4 neuroglioma cells, luminescence, dose response (AID 1990); assay type: functional, cell-based
[2] = Luminescence Cell-Based Dose Response HTS to Identify Inhibitors of 5'UTR Stem-Loop Driven Prion Protein mRNA Translation in H4 Neuroglioblastoma Cells. [Related pubchem assays: 1827 (Project Summary), 1813 (Primary HTS)]; assay type: functional
[3] = alpha-synuclein stem-loop luciferase translation blockers – H4 neuroglioma cells, luminescence, confirmation (AID 1988); assay type: functional, cell-based
[4] = HPDE-C7 pancreatic duct cell viability loss – fluorescence, HTS (AID 430); assay type: functional, cell-based; conditions: Homo sapiens
[5] = viability loss of HPDE-C7K cells – cell-based, fluorescence, HTS, primary screen (AID 431); assay type: functional; conditions: Homo sapiens
[6] = molecular target: Voltage-dependent T-type calcium channel subunit alpha-1H (Homo sapiens, UniProt O95180); assay type: functional;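 also: channel activity triggered by adding a high calcium stimulation buffer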
[7] = A Cell Based Secondary Assay To Explore Cytotoxicity of Compounds that Sensitize Mycobacterium Tuberculosis to Beta-Lactam Antibiotics.; assay type: functional
[8] = Luminescence Cell-Based Dose Response to Identify Activators of 5'UTR Stem-Loop Driven Prion Protein mRNA Translation in H4-C Neuroglioblastoma Cells. [Related pubchem assays: 1829 (Project Summary), 1814 (Primary HTS)]; assay type: functional
[9] = Luminescence Cell-Based Dose Response HTS to Identify Activators of Luciferase Translation or Activity in H4 […] Cells. [Related pubchem assays: 1829 (Project Summary), 1814 (Primary HTS)]; assay type: functional
[10] = system: H4; test: Luminescence Cell-Based Dose Response HTS to Identify Activators of 5'UTR Stem-Loop Driven Prion Protein mRNA Translation in H4 Neuroglioblastoma Cells. [Related pubchem assays: 1829 (Project Summary), 1814 (Primary HTS)]; assay type: functional; conditions: Homo sapiens
[11] = molecular target: Beta-galactosidase (Escherichia coli, UniProt Q8VNN2); test: PubChem AID 485352; assay type: functional
[12] = Luminescence Cell-Based Dose Response to Identify Activators of Luciferase Translation or Activity in H4-C Neuroglioblastoma Cells. [Related pubchem assays: 1829 (Project Summary), 1814 (Primary HTS)]; assay type: functional
[13] = molecular target: Large T antigen (Simian virus 40, UniProt P03070); assay type: functional, Betapolyomavirus macacae;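 also: Confirmatory-stage PubChem screen for compounds that inhibit SV40 T antigen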
[14] = molecular target: T1, Type-1 angiotensin II receptor (Homo sapiens, UniProt P30556); test: antagonism of angiotensin II type 1 receptor – cell-based, uHTS hits, selectivity assay for APJ receptor antagonist project, dose response (AID 463214); assay type: functional;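 also: antagonist potency against angiotensin II stimulated AT1 response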
T1 sequence (P30556 whole entry): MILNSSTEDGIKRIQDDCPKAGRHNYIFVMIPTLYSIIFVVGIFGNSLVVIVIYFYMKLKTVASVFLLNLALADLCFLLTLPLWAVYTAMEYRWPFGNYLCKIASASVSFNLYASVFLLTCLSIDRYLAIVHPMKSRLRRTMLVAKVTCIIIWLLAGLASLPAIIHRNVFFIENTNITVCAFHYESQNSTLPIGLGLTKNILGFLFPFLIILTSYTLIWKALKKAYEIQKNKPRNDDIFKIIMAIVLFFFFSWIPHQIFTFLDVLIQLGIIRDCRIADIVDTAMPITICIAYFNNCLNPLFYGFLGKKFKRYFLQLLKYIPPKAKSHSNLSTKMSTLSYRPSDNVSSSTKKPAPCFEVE

[15] = Luminescence Cell-Based Dose Confirmation to Identify Activators of 5'UTR Stem-Loop Driven Alpha-Synuclein mRNA Translation in H4 Neuroglioblastoma Cells. [Related pubchem assays: 1829 (Project Summary), 1814 (Primary HTS)]; assay type: functional
[16] = Luminescence Cell-Based Dose Confirmation HTS to Identify Activators of 5'UTR Stem-Loop Driven Alpha-Synuclein mRNA Translation in H4 Neuroglioblastoma Cells. [Related pubchem assays: 1829 (Project Summary), 1814 (Primary HTS)]; assay type: functional
[17] = molecular target: T2, Microphthalmia-associated transcription factor (Homo sapiens, UniProt O75030); test: reducers of TRPM1 reporter luminescence, concentration series – cell-based, SK-MEL-5, cherry-picked, set 3, MITF inhibitor project, dose response (AID 493073); assay type: functional;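 also: SK-MEL-5 melanoma cells with luciferase driven by the MITF target TRPM1 promoter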
T2 sequence (O75030 whole entry): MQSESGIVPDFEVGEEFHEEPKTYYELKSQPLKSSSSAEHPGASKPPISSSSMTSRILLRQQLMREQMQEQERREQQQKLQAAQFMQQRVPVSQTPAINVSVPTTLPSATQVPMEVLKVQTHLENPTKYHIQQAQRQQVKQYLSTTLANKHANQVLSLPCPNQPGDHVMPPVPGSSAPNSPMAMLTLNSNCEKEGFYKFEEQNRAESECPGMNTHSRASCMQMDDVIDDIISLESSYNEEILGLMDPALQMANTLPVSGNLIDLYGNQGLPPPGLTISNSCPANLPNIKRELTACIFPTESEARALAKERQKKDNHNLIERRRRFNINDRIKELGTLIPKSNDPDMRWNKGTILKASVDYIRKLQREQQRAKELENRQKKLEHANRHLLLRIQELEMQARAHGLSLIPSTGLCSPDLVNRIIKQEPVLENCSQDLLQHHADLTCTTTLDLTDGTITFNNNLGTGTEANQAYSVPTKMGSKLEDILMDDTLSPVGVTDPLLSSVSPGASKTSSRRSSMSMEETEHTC

[18] = molecular target: T3, Replicative DNA helicase DnaB (Mycobacterium tuberculosis, UniProt P9WMR3); test: DnaB intein splicing inhibitors, dose response, biochemical, cell-free fluorescence (AID 449749); assay type: functional
T3 sequence (P9WMR3 whole entry): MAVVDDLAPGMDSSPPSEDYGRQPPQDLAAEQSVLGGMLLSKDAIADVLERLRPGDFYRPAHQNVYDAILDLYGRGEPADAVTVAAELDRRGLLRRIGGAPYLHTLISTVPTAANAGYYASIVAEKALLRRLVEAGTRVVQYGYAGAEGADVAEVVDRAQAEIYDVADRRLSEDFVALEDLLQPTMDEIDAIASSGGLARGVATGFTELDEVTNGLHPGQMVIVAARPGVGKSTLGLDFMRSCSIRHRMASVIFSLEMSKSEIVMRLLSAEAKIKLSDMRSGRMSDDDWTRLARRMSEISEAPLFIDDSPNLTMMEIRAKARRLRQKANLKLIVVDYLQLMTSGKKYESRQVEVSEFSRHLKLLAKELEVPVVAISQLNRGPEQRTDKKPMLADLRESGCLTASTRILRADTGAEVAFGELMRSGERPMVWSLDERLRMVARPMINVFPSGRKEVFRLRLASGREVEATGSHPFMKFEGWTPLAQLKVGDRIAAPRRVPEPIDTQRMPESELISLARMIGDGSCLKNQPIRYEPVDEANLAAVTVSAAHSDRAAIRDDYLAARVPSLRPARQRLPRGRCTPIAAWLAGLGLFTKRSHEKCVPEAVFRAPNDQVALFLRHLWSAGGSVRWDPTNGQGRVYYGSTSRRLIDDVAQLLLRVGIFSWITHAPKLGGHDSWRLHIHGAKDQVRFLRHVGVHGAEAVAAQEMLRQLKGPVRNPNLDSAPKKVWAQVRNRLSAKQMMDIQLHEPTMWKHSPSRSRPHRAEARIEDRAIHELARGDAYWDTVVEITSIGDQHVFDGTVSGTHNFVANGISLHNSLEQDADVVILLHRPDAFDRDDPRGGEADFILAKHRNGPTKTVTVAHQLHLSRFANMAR

[19] = molecular target: T4, Protein RecA (Mycobacterium tuberculosis, UniProt P9WHJ3); test: Fluorescence Cell-Free Homogeneous Dose Retest to Identify Inhibitors of RecA-Intein Splicing Activity. [Related pubchem assays (depositor defined):AID2097, AID2223, AID489010, AID492950]; assay type: functional
T4 sequence (P9WHJ3 whole entry): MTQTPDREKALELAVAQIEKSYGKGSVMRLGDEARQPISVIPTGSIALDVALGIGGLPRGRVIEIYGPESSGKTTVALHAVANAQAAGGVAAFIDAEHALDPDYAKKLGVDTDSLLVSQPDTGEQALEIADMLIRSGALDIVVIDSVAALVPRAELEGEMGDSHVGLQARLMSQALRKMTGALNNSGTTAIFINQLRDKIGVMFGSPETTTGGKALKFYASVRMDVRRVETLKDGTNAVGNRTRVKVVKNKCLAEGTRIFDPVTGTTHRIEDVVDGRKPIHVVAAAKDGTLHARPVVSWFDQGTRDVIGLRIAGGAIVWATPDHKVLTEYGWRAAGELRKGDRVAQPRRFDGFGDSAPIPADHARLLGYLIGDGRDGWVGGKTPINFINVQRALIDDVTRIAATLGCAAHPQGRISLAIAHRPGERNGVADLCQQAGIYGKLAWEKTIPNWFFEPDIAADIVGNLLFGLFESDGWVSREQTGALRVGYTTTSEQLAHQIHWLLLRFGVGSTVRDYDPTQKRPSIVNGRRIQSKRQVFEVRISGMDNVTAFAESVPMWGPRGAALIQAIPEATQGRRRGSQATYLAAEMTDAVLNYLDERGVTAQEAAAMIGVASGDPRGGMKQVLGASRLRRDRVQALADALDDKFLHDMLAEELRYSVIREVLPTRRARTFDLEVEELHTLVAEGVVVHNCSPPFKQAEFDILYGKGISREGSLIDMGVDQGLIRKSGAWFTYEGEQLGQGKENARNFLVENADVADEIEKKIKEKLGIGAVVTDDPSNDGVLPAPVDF

Beta-galactosidase, sequence (Q8VNN2 whole entry): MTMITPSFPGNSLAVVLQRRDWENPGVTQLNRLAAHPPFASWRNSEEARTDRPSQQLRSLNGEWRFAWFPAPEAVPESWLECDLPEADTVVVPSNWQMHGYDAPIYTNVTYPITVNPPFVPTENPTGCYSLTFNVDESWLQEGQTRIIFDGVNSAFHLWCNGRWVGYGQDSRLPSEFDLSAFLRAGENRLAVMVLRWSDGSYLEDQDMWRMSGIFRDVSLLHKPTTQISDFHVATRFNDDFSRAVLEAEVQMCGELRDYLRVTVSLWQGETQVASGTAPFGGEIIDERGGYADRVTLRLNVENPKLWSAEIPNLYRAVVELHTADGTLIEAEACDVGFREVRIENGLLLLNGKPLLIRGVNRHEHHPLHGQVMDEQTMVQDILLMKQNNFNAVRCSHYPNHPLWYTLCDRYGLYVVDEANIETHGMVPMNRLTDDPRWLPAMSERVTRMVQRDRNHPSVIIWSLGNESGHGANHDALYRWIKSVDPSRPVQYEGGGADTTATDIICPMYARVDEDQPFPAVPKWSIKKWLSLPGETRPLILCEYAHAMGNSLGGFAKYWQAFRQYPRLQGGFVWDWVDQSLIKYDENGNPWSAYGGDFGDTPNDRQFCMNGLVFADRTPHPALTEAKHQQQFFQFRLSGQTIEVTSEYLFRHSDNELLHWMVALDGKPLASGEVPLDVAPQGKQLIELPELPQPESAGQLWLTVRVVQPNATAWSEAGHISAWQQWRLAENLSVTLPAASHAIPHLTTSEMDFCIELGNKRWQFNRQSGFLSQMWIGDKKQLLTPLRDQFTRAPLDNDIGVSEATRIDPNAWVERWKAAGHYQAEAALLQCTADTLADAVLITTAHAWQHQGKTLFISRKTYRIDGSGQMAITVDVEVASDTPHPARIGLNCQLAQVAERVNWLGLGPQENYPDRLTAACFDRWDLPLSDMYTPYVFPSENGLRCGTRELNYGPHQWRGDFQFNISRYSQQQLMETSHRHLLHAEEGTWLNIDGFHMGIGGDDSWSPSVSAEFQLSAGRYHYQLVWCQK
Large T antigen, sequence (P03070 whole entry): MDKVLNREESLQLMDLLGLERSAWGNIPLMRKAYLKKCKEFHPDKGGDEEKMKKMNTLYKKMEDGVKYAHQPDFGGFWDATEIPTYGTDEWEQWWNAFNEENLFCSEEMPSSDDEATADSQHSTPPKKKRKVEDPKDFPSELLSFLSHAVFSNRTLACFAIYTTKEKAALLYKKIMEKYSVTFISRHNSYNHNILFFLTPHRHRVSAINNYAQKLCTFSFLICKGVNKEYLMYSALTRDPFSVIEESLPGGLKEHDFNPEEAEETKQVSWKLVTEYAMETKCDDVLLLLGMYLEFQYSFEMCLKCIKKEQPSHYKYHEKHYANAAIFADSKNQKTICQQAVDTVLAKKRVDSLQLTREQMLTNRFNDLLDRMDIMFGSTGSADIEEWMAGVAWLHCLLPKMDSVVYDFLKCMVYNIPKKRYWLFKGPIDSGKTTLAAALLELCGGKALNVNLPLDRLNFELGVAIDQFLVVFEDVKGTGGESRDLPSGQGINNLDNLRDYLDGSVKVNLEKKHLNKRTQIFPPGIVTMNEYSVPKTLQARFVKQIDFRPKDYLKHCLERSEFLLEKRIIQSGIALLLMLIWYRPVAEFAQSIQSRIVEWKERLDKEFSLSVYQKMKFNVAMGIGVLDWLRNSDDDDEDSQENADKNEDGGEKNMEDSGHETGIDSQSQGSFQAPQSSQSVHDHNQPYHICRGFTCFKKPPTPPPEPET
Voltage-dependent T-type calcium channel subunit alpha-1H, sequence (O95180 whole entry): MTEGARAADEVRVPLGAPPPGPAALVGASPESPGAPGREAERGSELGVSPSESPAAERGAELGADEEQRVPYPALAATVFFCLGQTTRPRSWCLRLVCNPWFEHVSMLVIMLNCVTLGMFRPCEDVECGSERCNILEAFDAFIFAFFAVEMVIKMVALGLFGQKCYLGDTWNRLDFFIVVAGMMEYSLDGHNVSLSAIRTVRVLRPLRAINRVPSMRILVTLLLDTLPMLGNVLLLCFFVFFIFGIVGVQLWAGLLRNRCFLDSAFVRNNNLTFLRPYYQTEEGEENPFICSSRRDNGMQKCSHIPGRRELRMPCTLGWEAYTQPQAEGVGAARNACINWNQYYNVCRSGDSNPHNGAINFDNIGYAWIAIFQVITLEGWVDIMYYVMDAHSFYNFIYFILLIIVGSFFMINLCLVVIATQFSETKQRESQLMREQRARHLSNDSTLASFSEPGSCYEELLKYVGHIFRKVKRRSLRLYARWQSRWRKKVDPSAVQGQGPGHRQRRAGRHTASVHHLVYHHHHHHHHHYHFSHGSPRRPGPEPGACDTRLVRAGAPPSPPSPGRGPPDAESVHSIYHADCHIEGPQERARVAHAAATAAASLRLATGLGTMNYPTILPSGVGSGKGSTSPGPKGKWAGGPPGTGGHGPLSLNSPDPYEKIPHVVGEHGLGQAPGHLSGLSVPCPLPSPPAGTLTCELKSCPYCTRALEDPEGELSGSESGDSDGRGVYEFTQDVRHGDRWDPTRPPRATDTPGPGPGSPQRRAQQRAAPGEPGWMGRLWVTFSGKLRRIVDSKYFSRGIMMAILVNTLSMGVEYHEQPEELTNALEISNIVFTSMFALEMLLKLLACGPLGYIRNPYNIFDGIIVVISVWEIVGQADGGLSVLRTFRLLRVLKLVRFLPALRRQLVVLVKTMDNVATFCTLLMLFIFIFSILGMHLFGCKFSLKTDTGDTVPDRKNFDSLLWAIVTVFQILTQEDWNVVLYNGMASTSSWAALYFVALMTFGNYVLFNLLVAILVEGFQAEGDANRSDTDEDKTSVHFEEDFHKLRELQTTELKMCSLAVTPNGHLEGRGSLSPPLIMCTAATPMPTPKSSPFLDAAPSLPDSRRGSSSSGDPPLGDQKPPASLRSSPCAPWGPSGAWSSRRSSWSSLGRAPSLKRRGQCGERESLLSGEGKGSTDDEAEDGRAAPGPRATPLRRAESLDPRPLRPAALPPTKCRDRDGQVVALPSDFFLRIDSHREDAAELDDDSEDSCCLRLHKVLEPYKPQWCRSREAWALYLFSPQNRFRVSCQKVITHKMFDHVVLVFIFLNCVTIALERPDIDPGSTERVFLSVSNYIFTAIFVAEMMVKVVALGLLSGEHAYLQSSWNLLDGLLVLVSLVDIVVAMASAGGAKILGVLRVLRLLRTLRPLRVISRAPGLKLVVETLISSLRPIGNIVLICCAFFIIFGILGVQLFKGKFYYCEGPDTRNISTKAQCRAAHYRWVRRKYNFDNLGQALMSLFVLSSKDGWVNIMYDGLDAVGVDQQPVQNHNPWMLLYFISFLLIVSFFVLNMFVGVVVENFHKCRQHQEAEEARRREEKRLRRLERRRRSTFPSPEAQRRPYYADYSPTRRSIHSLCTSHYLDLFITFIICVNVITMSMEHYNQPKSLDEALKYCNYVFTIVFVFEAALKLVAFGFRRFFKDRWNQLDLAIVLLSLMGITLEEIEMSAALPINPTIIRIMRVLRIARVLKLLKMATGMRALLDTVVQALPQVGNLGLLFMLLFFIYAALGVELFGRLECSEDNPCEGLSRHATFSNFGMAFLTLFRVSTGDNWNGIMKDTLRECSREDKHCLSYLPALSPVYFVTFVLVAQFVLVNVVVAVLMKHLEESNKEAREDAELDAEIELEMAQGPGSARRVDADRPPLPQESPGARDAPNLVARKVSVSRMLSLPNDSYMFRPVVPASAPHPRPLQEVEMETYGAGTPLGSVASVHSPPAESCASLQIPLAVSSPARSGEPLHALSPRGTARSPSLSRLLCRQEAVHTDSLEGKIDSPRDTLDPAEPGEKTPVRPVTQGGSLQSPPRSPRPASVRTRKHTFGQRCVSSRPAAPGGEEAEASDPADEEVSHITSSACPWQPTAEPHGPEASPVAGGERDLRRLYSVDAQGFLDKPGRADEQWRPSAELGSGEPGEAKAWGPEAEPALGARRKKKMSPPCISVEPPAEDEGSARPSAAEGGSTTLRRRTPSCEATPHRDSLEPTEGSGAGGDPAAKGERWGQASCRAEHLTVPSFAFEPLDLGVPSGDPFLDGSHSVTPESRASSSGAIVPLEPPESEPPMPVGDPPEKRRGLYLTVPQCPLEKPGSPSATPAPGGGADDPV

Row | Compound | EC50 [4] | EC50 [5] | EC50 [8] | EC50 [9] | EC50 [10] | EC50 [12] | EC50 [15] | further results
1 | COc1cc(C)c(C(C)C)cc1S(=O)(=O)n1cnc(C)c1 | 3.47 µM (active) | 4.11 µM (active) |  |  |  |  |  | EC50 [1]: > 120 µM (not active); EC50 [2]: > 120 µM (not active); EC50 [3]: 9.12 µM (active); EC50 [6]: 52.3 µM (active)
2 | COc1cc(C(=O)Nc2cccc(-c3cn4cccnc4n3)c2)cc(OC)c1OC |  |  |  |  |  |  |  | CC50 [7]: > 40 µM (active)
3 | Cc1ccc(SSc2cc(C)ccc2N)c(N)c1 |  |  | 1.21 µM (active) | < 0.1 µM (inconclusive) | 42.5 µM (inconclusive) | 1.67 µM (active) | 5 µM (active) | EC50 [11]: > 40 µM (inactive); IC50 [13]: 10.8 µM (active); IC50 [14]: > 40 µM (not active)
4 | O=C(CCl)Nc1cccc(-c2cnc3ccccc3n2)c1 |  |  | > 12 µM (not active) | 2.98 µM (active) | > 60 µM (not active) | 0.561 µM (active) | 0.7 µM (active) | EC50 [16]: < 0.1 µM (active); AC50 [17]: 4.02 µM (active); AC50 [18]: 53.1 µM (active); EC50 [19]: 13.3 µM (active)
5 | Cn1c(CCN2CCCCCC2)nc2cc(NC(=O)Nc3ccccc3)ccc21 | > 20 µM (not active) | > 20 µM (not active) |  |  |  |  |  | 

Source: ChEMBL document CHEMBL1201862, “PubChem BioAssay data set” (2004)
